Data: ChEMBL document CHEMBL2069183, “Inhibitor scaffold for the histone lysine demethylase KDM4C (JMJD2C)” (Bioorg Med Chem Lett, 2012)

Target: T1, Lysine-specific demethylase 4C (Homo sapiens, UniProt Q9H3R0)
T1 sequence (Q9H3R0 whole entry): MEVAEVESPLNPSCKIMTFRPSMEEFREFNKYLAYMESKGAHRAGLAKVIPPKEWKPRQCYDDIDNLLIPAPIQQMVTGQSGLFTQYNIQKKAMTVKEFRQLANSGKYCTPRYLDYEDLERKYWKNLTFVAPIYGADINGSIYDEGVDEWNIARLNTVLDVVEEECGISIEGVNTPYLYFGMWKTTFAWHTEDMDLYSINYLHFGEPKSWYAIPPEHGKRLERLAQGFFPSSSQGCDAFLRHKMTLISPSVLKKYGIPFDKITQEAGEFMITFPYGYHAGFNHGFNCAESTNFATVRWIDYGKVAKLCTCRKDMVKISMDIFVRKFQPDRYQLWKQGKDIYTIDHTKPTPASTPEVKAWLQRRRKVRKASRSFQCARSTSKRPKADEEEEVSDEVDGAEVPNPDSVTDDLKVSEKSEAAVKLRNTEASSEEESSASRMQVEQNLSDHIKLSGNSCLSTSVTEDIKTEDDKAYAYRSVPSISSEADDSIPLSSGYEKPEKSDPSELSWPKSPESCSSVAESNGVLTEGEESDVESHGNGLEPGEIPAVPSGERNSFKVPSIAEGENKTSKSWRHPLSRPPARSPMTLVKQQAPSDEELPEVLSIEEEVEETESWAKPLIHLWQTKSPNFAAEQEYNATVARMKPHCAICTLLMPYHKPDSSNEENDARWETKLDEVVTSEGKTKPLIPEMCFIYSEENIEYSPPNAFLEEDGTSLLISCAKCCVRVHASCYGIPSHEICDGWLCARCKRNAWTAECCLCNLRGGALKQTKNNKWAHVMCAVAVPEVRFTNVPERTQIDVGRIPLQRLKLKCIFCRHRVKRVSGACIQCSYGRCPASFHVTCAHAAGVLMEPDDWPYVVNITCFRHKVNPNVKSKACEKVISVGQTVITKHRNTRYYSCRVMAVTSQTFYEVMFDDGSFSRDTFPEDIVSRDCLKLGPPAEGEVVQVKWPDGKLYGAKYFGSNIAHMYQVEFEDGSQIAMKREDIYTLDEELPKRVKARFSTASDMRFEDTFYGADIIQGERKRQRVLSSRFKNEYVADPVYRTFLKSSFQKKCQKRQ
Experiment: Inhibition of KDM4C catalytic core-mediated demethylation of ARK(Me)3STGGK after 30 mins by FDH-coupled assay

Compound | IC50 [µM] | Ki [µM]
[O-][n+]1nn(Cc2ccccc2)c(C(=S)Nc2ccccc2)c1Cl | > 200 | > 200
O=[N+]([O-])c1cnn(-c2ccccc2)c1 | > 200 | > 200
COn1nnc(C(=O)O)c1C(=O)O | > 200 | > 200
N#Cc1cccnc1Nc1cccnc1Cl | > 200 | > 200
Oc1csc(O)n1 | > 200 | > 200
[O-][n+]1nn(Cc2ccccc2)cc1Cl | > 200 | > 200
C[n+]1ccnn1-c1ccccc1 | > 200 | > 200
Cc1ccc(-n2nc(C(=O)c3ccccc3)c(O)c2C)cc1 | > 200 | > 200
[O-][n+]1nn(-c2ccccc2)c(Cl)c1Cl | > 200 | > 200
C[n+]1nn(Cc2ccccc2)cc1Cl | > 200 | > 200
CSc1c(Cl)[n+]([O-])nn1-c1ccccc1 | > 200 | > 200
O=C(O)c1cnn(-c2ccccc2)n1 | > 200 | > 200
Cc1c(Cl)[n+]([O-])nn1-c1ccccc1 | > 200 | > 200
c1cn[nH]c1 [PYRAZOLE] | > 200 | > 200
Cn1cc(N)nn1 | > 200 | > 200

Results, then the compound that gave them:

IC50 [µM] | Ki [µM] | Compound
> 200 | > 200 | CN1CN(Cc2ccccc2)C=C1S
> 200 | > 200 | [O-][n+]1nn(Cc2ccccc2)cc1Br
> 200 | > 200 | COC(=O)c1n[nH]n(Cc2ccccc2)c1=O
> 200 | > 200 | [O-][n+]1nn(-c2ccccc2)c(Br)c1Br
> 200 | > 200 | [O-][n+]1nn(-c2ccccc2)c(Br)c1Cl
> 200 | > 200 | [O-][n+]1nn(Cc2ccccc2)c(Br)c1Br
> 200 | > 200 | OB(O)c1cc[nH]n1
> 200 | > 200 | COc1c(-c2ccccc2)nnn1C
> 200 | > 200 | CCOC(=O)c1[nH]nnc1C
> 200 | > 200 | Cn1cc(Br)nc1-c1ccccc1
> 200 | > 200 | CN1C=C(Br)N(O)N1
